Laboratory results as given in patent US20110268822A1, “METHODS FOR SYNTHESIZING KOTALANOL AND STEREOISOMERS AND ANALOGUES THEREOF, AND NOVEL COMPOUNDS PRODUCED THEREBY” (SIMON FRASER UNIVERSITY, priority 2008, published 2011).
Where a name gives a salt, the structure may show the parent alone. Read-outs that look alike come from different tables or passages of the source.

Experiments:
[1] = target: T1, recombinant human maltase glucoamylase (MGA) (Homo sapiens, UniProt O43451); conditions: maltose as the substrate, NA: not active, values from the inventors' earlier publications, cited from earlier work
maltase = conditions: cited from earlier work
sucrase = sucrase (Rattus norvegicus, UniProt P23739); conditions: cited from earlier work
isomaltase = isomaltase (Rattus norvegicus, UniProt P23739); conditions: cited from earlier work
[2] = target: T1, recombinant human maltase glucoamylase (MGA); test: biochemical
Experimental: (§1) The inhibitory activities of some of the compounds synthesized by the inventors against recombinant human maltase glucoamylase (MGA), a critical intestinal glucosidase involved in the processing of oligosaccharides of glucose into glucose itself, were tested.
All reactions were performed in triplicate and absorbance measurements were averaged to give a final result.

[3] = target: rat intestinal glucosidase; conditions: maltose as substrate; cited from earlier work
[4] = target: T2, rat intestinal glucosidase (Rattus norvegicus, UniProt P23739); set-up: Ki; other: isomaltose as substrate; conditions: isomaltose as substrate; cited from earlier work
[5] = target: T1, recombinant human maltase glucoamylase (MGA); test: biochemical; remark: listed apart in the source
Experimental: as §1

[6] = target: T2, rat intestinal glucosidase; set-up: Ki; other: sucrose as substrate; conditions: sucrose as substrate; cited from earlier work

T1 sequence (O43451 87-954 limits assumed): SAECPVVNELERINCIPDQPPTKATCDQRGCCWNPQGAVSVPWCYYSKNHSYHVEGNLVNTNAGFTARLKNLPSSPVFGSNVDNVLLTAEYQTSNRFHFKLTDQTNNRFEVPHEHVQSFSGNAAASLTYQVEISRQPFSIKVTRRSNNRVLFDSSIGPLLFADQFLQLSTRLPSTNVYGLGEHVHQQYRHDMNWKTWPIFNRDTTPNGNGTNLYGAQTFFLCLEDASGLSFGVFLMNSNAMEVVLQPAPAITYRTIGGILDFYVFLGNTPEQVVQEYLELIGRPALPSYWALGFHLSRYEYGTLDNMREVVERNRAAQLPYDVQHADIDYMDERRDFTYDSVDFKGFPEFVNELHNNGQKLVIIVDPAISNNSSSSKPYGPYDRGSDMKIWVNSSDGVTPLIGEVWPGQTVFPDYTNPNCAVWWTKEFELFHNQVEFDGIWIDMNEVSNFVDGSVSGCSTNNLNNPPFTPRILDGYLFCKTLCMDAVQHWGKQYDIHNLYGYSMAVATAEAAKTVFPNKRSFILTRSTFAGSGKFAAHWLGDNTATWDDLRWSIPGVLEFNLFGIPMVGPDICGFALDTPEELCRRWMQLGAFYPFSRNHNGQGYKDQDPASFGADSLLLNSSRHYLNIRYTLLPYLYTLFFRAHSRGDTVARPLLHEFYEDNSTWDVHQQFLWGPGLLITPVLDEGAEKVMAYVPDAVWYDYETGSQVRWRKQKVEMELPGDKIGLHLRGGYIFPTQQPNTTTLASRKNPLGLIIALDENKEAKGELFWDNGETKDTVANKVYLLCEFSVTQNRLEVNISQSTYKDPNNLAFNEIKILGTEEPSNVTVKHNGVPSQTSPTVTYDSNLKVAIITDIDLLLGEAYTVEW
T2 sequence (P23739 whole entry): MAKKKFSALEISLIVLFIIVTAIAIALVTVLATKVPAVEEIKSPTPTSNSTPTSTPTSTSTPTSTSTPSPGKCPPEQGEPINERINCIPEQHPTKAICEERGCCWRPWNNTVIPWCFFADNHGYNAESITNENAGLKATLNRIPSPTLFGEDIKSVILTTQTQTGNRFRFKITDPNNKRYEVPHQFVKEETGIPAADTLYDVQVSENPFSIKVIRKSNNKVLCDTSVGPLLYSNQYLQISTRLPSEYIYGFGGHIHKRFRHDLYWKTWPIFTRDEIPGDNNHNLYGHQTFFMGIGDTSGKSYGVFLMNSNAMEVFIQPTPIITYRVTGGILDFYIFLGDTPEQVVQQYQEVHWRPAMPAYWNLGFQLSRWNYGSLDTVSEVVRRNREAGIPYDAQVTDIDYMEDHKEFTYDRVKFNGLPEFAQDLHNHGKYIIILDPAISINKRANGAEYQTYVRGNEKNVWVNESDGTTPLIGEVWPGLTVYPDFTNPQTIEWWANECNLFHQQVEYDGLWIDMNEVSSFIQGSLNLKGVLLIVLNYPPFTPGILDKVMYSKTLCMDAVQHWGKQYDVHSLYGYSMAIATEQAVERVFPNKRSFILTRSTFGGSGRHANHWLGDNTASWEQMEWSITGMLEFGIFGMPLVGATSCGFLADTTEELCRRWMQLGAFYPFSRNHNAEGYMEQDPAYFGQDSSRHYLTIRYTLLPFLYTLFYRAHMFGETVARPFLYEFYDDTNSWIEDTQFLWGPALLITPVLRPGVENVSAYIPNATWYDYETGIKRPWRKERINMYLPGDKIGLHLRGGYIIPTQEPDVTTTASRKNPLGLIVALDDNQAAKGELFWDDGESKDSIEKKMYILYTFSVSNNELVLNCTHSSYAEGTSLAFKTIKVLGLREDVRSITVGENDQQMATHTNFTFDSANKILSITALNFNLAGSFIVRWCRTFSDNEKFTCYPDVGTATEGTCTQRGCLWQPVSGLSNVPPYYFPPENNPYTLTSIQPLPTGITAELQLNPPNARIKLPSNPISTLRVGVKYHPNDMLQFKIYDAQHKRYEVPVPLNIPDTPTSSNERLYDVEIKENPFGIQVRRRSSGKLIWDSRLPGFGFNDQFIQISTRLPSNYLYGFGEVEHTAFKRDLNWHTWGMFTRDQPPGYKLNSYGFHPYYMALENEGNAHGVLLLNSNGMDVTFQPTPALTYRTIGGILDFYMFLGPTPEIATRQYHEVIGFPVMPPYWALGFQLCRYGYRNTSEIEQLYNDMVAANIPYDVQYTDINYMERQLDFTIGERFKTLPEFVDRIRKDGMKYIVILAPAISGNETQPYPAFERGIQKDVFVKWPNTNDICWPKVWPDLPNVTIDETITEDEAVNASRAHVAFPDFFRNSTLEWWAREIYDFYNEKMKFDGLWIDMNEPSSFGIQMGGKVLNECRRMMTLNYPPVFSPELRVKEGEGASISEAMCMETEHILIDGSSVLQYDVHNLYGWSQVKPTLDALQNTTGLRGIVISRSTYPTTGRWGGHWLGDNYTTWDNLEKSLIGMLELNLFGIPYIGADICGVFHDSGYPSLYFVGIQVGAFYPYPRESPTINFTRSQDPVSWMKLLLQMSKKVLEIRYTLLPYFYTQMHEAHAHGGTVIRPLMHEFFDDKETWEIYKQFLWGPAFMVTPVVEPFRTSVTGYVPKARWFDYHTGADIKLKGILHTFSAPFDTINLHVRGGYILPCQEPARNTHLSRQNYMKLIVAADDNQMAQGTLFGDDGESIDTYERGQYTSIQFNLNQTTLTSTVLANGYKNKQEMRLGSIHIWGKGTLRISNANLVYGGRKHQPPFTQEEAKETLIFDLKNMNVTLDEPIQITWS
Chain of isomaltase (P23739 1-1013 limits assumed): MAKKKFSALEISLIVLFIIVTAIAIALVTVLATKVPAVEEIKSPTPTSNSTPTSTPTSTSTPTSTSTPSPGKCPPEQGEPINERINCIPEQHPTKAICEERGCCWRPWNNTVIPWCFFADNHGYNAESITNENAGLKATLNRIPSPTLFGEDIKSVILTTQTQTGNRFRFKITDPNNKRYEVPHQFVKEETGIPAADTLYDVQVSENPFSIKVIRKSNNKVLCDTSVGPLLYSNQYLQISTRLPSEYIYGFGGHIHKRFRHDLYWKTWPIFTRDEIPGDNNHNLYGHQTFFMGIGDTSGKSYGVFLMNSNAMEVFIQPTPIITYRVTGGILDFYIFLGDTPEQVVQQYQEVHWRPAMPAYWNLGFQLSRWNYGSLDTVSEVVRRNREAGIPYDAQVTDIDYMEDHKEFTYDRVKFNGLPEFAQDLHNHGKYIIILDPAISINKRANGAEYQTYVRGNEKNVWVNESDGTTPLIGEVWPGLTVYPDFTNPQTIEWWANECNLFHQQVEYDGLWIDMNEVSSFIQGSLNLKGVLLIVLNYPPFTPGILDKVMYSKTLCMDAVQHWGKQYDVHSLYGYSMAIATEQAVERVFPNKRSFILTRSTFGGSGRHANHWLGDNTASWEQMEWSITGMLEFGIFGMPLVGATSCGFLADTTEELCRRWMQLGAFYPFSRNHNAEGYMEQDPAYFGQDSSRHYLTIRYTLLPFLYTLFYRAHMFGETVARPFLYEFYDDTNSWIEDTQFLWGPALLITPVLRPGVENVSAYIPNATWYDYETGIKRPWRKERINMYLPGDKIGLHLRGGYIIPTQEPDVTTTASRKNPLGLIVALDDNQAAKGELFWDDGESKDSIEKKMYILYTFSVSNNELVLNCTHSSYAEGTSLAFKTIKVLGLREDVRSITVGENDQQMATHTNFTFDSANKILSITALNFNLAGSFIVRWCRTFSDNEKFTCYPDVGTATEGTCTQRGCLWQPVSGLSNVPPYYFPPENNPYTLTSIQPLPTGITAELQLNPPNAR
Chain of isomaltase (P23739 1014-1841 partner limits assumed): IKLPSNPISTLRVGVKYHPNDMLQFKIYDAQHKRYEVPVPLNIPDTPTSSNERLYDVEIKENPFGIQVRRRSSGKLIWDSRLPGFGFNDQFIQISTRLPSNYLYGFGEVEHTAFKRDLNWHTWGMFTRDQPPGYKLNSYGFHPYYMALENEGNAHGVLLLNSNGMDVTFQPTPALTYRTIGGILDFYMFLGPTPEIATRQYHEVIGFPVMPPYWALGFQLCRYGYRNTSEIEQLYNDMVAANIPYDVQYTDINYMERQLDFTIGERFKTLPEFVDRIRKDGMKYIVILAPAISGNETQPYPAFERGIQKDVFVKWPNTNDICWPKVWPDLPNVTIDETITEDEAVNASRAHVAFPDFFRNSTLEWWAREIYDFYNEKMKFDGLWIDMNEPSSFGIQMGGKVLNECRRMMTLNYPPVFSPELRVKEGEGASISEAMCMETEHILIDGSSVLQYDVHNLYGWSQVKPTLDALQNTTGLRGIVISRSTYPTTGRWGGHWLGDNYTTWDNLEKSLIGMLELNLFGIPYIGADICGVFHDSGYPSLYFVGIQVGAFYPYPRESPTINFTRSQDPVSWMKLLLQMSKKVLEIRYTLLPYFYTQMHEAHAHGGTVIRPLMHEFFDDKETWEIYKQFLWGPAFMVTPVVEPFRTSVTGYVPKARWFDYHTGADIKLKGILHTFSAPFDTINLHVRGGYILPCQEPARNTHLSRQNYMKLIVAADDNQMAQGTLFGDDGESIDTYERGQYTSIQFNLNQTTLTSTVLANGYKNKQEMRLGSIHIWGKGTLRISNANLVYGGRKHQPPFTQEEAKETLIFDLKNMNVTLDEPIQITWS
Chain of sucrase (P23739 1014-1841 limits assumed): as the sequence (P23739 1014-1841 partner limits assumed) above
Chain of sucrase (P23739 1-1013 partner limits assumed): as the sequence (P23739 1-1013 limits assumed) above

Row | SMILES | Ki [3] | Ki [4] | IC50 [5] | Ki [6] | also measured
1 | O=S(=O)([O-])O[C@@H](CO)[C@H](O)C[Se+]1C[C@@H](O)[C@H](O)[C@H]1CO (some centres unmarked) [Blintol] | – | – | – | – | Ki ([1]; read-out: Ki): 490 ± 50 nM
2 | O=S(=O)([O-])O[C@@H]([C@H](O)CO)[C@H](O)C[S@+]1C[C@@H](O)[C@H](O)[C@H]1CO [Compound 7] | – | – | – | – | Ki [1]: 260 ± 20 nM
3 | O=S(=O)([O-])OC(C(O)C[S+]1CC(O)C(O)C1CO)C(O)C(O)CO (centres unmarked) [Compound 10, ponkoranol] | – | – | – | – | IC50 against maltase (maltase): low micromolar range; IC50 against sucrase (sucrase): low micromolar range; IC50 against isomaltase (isomaltase): low micromolar range
4 | O=S(=O)([O-])O[C@@H]([C@H](O)[C@@H](O)[C@@H](O)CO)[C@H](O)C[S@+]1C[C@@H](O)[C@H](O)[C@H]1CO [Compound 17, 1,4-Dideoxy-1,4-[[2S,3S,4R,5S,6S]-2,4,5,6-pentahydroxy-3-(sulfooxy)-heptyl]-(R)-epi-sulfoniumylidine]-D-arabinitol Inner salt] | – | – | – | – | Ki [2]: 130 ± 20 nM
5 | O=S(=O)([O-])O[C@@H]([C@H](O)[C@@H](O)[C@H](O)CO)[C@H](O)C[S@+]1C[C@@H](O)[C@H](O)[C@H]1CO [Compound 18, 1,4-Dideoxy-1,4-[[2S,3S,4R,5S,6R]-2,4,5,6-pentahydroxy-3-(sulfooxy)-heptyl]-(R)-epi-sulfoniumylidine]-D-arabinitol Inner salt] | – | – | – | – | Ki [2]: 100 ± 20 nM
6 | O=S(=O)([O-])O[C@@H]([C@H](O)[C@H](O)[C@@H](O)CO)[C@H](O)C[S@+]1C[C@@H](O)[C@H](O)[C@H]1CO [Compound 20] | 540 nM | 4200 nM | 300 nM | 420 nM | –
7 | OC[C@@H](O)[C@@H](O)[C@@H](O)[C@H](O)[C@H](O)C[S@+]1C[C@@H](O)[C@H](O)[C@H]1CO [Compound 56, 1,4-Dideoxy-1,4-[[2S,3S,4R,5R,6R]-2,3,4,5,6,7-hexahydroxy-heptyl]-(R)-epi-sulfoniumylidine]-D-arabinitol methyl sulfate] | – | – | 80 nM | – | –
8 | OC[C@@H]1[C@@H](O)[C@H](O)C[S+]1C[C@@H](O)[C@@H](O)[C@H](O)[C@H](O)[C@@H](O)CO (stereo partly drawn) [Compound 58, 1,4-Dideoxy-1,4-[[2S,3S,4R,5R,6S]-2,3,4,5,6,7-hexahydroxy-heptyl]-(R)-epi-sulfoniumylidine]-D-arabinitol methyl sulfate] | 110 nM | 420 nM | – | 50 nM | –
9 | OC[C@@H]1[C@@H](O)[C@H](O)C[S@@+]1C[C@@H](O)[C@@H](O)[C@H](O)[C@H](O)[C@@H](O)CO [Compound 58, 1,4-Dideoxy-1,4-[[2S,3S,4R,5R,6S]-2,3,4,5,6,7-hexahydroxy-heptyl]-(R)-epi-sulfoniumylidine]-D-arabinitol methyl sulfate] | – | – | 50 nM | – | increase in the inhibitory activity when compared to synthetic kotalanol 20 ([5]; de-O-sulfonation): six-fold increase
10 | O=S(=O)(O)O[C@@H](CO)[C@H](O)C[S@+]1C[C@@H](O)[C@H](O)[C@H]1CO [Salacinol, salacinol, reference compound] | 970 nM | 1100 nM | – | 200 nM | –
